One assay concerns the target 5-LOX enzyme. Description: 5-Lipoxygenase (5-LOX) inhibitory assay (colorimetric LOX inhibitor screening kit). Conditions: isolated compounds. Format: biochemical. As to the method:
The LOX inhibitor screening assay was carried out colorimetrically, as per the manufacturer’s instructions (Cayman Chemical Company, MI, USA). […] To initiate the enzymatic reaction, introduce 10 µL of 1 mM arachidonic acid and shake the plate for 5 min.
To halt the enzymatic process and promote colour formation, 100 µL of chromogen from the test kit was used. The plate was then shaken for a further 5 min before the absorbance at 490 nm was measured with a microplate reader.

In a further assay the target is T1, ovine COX-1 (Ovis aries, UniProt P05979).
T1 sequence (P05979 25-600): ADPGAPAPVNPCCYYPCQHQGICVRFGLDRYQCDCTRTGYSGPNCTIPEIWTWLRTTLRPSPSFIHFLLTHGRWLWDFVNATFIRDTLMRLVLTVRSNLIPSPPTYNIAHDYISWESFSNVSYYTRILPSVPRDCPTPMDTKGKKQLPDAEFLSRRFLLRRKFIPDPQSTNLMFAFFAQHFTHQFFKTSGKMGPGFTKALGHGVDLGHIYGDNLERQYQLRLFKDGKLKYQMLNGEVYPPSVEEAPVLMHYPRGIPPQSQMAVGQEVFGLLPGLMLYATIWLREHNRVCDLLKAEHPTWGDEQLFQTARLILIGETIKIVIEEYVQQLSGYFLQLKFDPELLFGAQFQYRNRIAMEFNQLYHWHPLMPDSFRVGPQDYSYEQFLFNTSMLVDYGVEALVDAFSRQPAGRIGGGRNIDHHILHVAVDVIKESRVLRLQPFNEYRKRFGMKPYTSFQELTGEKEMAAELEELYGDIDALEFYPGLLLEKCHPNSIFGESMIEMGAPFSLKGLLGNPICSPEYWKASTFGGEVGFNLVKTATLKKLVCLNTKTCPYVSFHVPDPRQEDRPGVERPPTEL
Description: COX-1 inhibition assay (colorimetric COX (ovine) inhibitor screening kit).

Another assay deals with lipoxygenase. Also on record: method as in PMID 26134247. Conditions: dose of 0.5 mM; cited from earlier work.
In the next assay the test system is soybean 5-LOX. More on the design: method as in doi:10.1007/s00044-016-1677-9. Conditions: in vitro; cited from earlier work.
For assay [1], the system named is carrageenan-induced rat paw edema. Also on record: method as in PMID 12241987. To be noted: cited from earlier work.

Description for ovine COX-1: COX-1 and 2 inhibition assay kits (K548-100 and K547-100) were purchased from Biovision Inc., California, USA. […] The absorbances were measured using a Tecan microplate reader (Infinite F50, Switzerland). […] Sigma Chemical Company (CA, USA) supplied the reagents utilized in biological experiments.
To prepare a stock concentration of 5 mg/mL, the extract and its constituent fractions were dissolved in 100% DMSO. In triplicate, samples were serially diluted from 0.1 µg/mL to 100 µg/mL. The inhibitory activity of COX was determined using a colorimetric approach, as previously described [13], and using the Cayman colorimetric COX (ovine) inhibitor screening test kit (Cayman Chemical Company, MI, USA) according to the manufacturer’s instructions. […] After initiating the reaction with 10 µL of 10 mM arachidonic acid, the mixture was incubated at 37 °C for another 2 min. To stop the reaction, 50 µL of 1 N HCl and saturated stannous chloride were added. The assays were run using 100 U of ovine COX-1 and COX-2. […] Results were presented as IC50 (µg/mL) [13].

For the compound `COC(=O)C1=COC(OC2OC(CO)C(O)C(O)C2O)C2C1(O)CC(OC(=O)C=Cc1ccc(OC)c(O)c1)C2(C)O` (stereo not shown) [Compound 1, duranterectoside A], the IC50 on 5-LOX enzyme came to 2.6 ± 0.1 µM; on ovine COX-1, 7.3 ± 0.9 µM.

For the compound `COC(=O)C1=COC(OC2OC(CO)C(O)C(O)C2O)C2C1(O)CC(O)C2(C)O` (stereo not shown) [Compound 2, lamiide], the IC50 is 4.9 ± 0.4 µM against 5-LOX enzyme and 8.5 ± 0.2 µM against ovine COX-1. In addition, the inhibition of lipoxygenase entry with lipoxygenase is reported as “moderate inhibition”. In addition, the “suppression of soybean 5-LOX” value in the assay with soybean 5-LOX is “suppresses”. Moreover, the “anti-inflammatory effect in carrageenan-induced rat paw edema” value in assay [1] is on record as “anti-inflammatory properties”.

A word on the IC50: it is the concentration that gives 50% inhibition. A high value points to lower potency.

The values above are taken from paper PMC11773759, “Bioactivity-guided isolation and molecular modeling of the anti-inflammatory constituents from the leaves of Duranta erecta Linn” (BMC Complementary Medicine and Therapies, 2025).
